Assay results from a melting point compilation (Tetko et al.).

Compound	melting point [°C]
CCOC(=O)C(=O)c1ccc2c(c1)OCCO2	65 to 67
O=C(O)CC1COC(=O)C1 (stereo not given)	83 to 85
O=C(O)C=C1CCSCC1	56 to 58
NC(=O)c1cccc(Oc2ccc(N)nc2)c1	162 to 164
CNC(=O)C(Br)Cc1ccccc1 (stereo not given)	103 to 105
CC(=O)Nc1ccc(S(=O)(=O)Cl)cc1[N+](=O)[O-]	89 to 91
O=Cc1cc(Cl)cc2cccnc12	155 to 157
COCCn1cnc2c1c(=O)n(CC(=O)O)c(=O)n2Cc1ccccc1	131 to 133
O=C1CN(C(=O)c2ccc(Cl)nc2)CCN1	163 to 165
COC(=O)c1c[nH]c(CC(C)C)n1	136 to 138
Nn1cn[nH]c1=O	169 to 171
Cc1cccc(NC(=O)CN2CCNCC2)c1C	55 to 57
O=C(O)c1cc(Cl)ccc1-n1cnnn1	198 to 200
CC(C)c1ccc(-c2ncc(CSc3nnc(N)[nH]3)s2)cc1	168 to 170
Cc1cccc(CC(N)=S)c1	75 to 77
COc1ccc(C(CN)c2c[nH]c3ccccc23)cc1 (stereo not given)	127 to 129
O=C(CCl)c1ccc(I)cc1	127 to 129
Cc1oncc1C(=O)Nc1ccc(C(=O)O)cc1	229 to 231
N#Cc1c(N)sc2c1CCCCC2	103 to 115
COc1ccc(C=O)cc1OC(F)F	34 to 38
COc1ccc(C(=O)NC(C(=O)O)c2ccccc2)cc1 (stereo not given)	187 to 189
Cc1ccc(N)cc1S(N)(=O)=O	151 to 153
O=C1Nc2ccccc2NC1CO (stereo not given)	140 to 142

Compound	melting point [°C]
Cc1ccc(C(F)(F)C(=O)O)cc1	39 to 41
O=C(O)c1cc([N+](=O)[O-])ccc1SC1CCCC1	203 to 205
O=C(O)c1cc(Cl)c[nH]1	182 to 184
CC1C(=O)NCCN1C(=O)c1ccco1 (stereo not given)	149 to 151
O=[N+]([O-])c1ccc(-c2cn[nH]c2)cc1	205 to 207
CCOc1cccc2c1OCC(C(=O)O)C2 (stereo not given)	160 to 162
Cc1ccc(C)c(C(=O)CCC(=O)O)c1	80 to 84
O=Cc1ccc(-c2ccc(C(=O)O)cc2)o1	313 to 315
NC(=NO)c1cnn2cccnc12	177 to 179
NS(=O)(=O)c1cc([N+](=O)[O-])ccc1F	139 to 141
O=C(CCl)NNC(=O)C1CC1	185 to 187
O=c1[nH]c2ccc(NCc3cccc(Cl)c3)cc2[nH]1	217 to 219
CC(C)(N)c1nnn[nH]1	251 to 253
O=C(O)c1ccc(-n2cnnn2)cc1	220 to 230
C/C(=N\O)c1ccc(-c2ccc(F)cc2)s1	139 to 141
O=C(O)CNC(=O)c1cc(Cl)ccn1	188 to 190
CC(Oc1cccc(O)c1)C(N)=O (stereo not given)	129 to 131
CCN(CC)S(=O)(=O)c1ccc2c(c1)CCN2	80 to 82
O=C(O)c1ccc([N+](=O)[O-])s1	143 to 151
NNC(=O)CNc1ccc(F)cc1	80 to 83
CC(C)OC(=S)Nc1ccc(C#N)c(Cl)c1	156 to 158
CC(C)c1c(C(=O)O)cnn1Cc1ccccc1	153 to 155
CC(=O)Nc1cccc(C(C)O)c1 (stereo not given)	103 to 105

Compound	melting point [°C]
CC1CC1c1cc(N)n(-c2ccccc2)n1 (stereo not given)	92 to 94
CC(C)c1ccc(S(=O)(=O)c2ccc(NN)cc2)cc1	191 to 193
Cn1cc(C(N)=O)c(C(F)F)n1	214 to 216
CNc1ncccc1C#N	87 to 89
Nc1ncn(Cc2ccncc2)n1	156 to 158
COc1cc(C2(C(=O)O)CCCC2)ccc1C	163 to 165
O=C(O)c1c(F)ccc(S(=O)(=O)NC2CC2)c1F	134 to 136
CCCC1CCc2nc(N)sc2C1 (stereo not given)	78 to 80
Nc1cc(C(=O)O)c2ccccc2c1	178 to 180
O=C(CCl)N(Cc1ccc(F)cc1)C1CCCCC1	73 to 75
Nc1ccccc1N1CCc2ccccc2C1	114 to 116
CC(C)(C)OC(=O)N1CCC(CC#N)CC1	72 to 74
CCOc1ccc(C(=O)CCl)cc1	63 to 65
CCN(CC)S(=O)(=O)c1ccc(Cl)c(C(=O)O)c1	121 to 125
Cc1nc2ccccn2c1CN1CCNCC1	163 to 165
O=C1C=CC(=O)N1C1CC1	54 to 56
Cc1nc2sccn2c1CO	180 to 182
Sc1nnnn1Cc1ccco1	78 to 80
CS(=O)(=O)c1ccc(-c2nc(CCl)co2)cc1	129 to 131
CC(C)c1ccc(CCNC(=O)CCl)cc1	54 to 56
O=C(Nc1ccc(O)cc1)c1cccc([N+](=O)[O-])c1	222 to 224
O=C(O)c1ccc(OC2CCCC2)cc1	171 to 173
NS(=O)(=O)c1ccc2c(c1)CCCN2	161 to 163

The next lines start with the values.

melting point [°C]	Compound
49 to 51	CCCOc1ccc(N)cc1Cl
53 to 55	O=C(NC1CC1)OCC(F)(F)F
189 to 191	CCSc1ccc([N+](=O)[O-])cc1C(=O)O
68 to 70	O=Cc1ccc(-n2ccc(C(F)(F)F)n2)cc1
149 to 151	COc1ccc(-n2nc(C(=O)O)cc2C)cc1
139 to 141	C=CCn1c(S)nc2cc(Cl)ccc2c1=O
137 to 139	Nc1ccc(C(=O)NCCN2CCCC2)cc1
159 to 161	Nc1cccc(NC(=O)NCc2ccncc2)c1
188 to 190	O=C(O)c1nccnc1-c1nc2ccccc2s1
198 to 200	CN(C)c1ccc(C(=O)O)cc1[N+](=O)[O-]
162 to 164	O=C(O)Cc1ccc([N+](=O)[O-])cc1F
179 to 181	O=C(O)c1ccc(CS)cc1
117 to 119	NNC(=O)C(=O)N1CCCC1
180 to 182	CCC1(CC)NC(=O)NC1=O
240 to 241	CC(=N\O)/C(C)=N/O
150 to 152	CN(C)S(=O)(=O)c1ccc(N)nc1
135 to 137	N#Cc1ccc(-n2cnc3ccccc32)cc1
203 to 205	CS(=O)(=O)c1ccc(Br)c(C(=O)O)c1
56 to 58	O=C(CCCl)NCCc1ccccc1
192 to 194	COc1ccc(/C=C/C(=O)O)c(OC)c1
51 to 53	CC(O)CS(C)(=O)=O (stereo not given)
150 to 152	Fc1cc2nc(CCl)[nH]c2cc1F
66 to 68	N#CCc1ccc([N+](=O)[O-])cc1Br
106 to 108	Cc1cc(Cl)n2nc(C(F)(F)F)nc2n1
232 to 234	O=C(O)c1nn(-c2ccc(Br)cc2)c2c1CCCC2
285 to 287	COc1cccc(/C=C/c2cc(C(=O)O)c3cc(Br)ccc3n2)c1

melting point [°C]	Compound
119 to 121	N#Cc1ccccc1Oc1ccc(N)cc1F
136 to 140	CC(=O)NC1CCC(=O)CC1
56 to 58	O=S1(=O)CCC(CCBr)C1 (stereo not given)
94 to 96	CNS(=O)(=O)c1ccc(I)cc1
234 to 236	Sc1nc2ncccn2n1
160 to 162	O=c1cc(CCl)c2ccc(Br)cc2o1
129 to 131	CNS(=O)(=O)c1cccc(CN)c1
181 to 183	COc1cc(OC)c2cc(C(=O)O)[nH]c2c1OC
178 to 180	CCc1ccc2cc(C(=O)O)[nH]c2c1
257 to 259	COc1ccc(C(=O)O)cc1S(=O)(=O)Nc1ccc(Br)cc1
88 to 90	Sc1nnc(-c2ccc(Cl)cc2)o1
209 to 211	COc1ccc(NS(=O)(=O)c2cc(C(=O)O)ccc2F)cc1
152 to 154	O=C(CCl)Nc1cc(Cl)ccc1C(=O)O
125 to 127	CNC(=O)COc1ccc(O)cc1
71 to 73	NNC(=O)C1CCS(=O)(=O)C1 (stereo not given)
214 to 216	Cc1oncc1C(=O)Nc1ccc(C(=O)O)c(O)c1
143 to 145	N#Cc1cccc(NC(=O)CCl)c1
188 to 190	CC(=O)c1cccc(S(=O)(=O)NCC(=O)O)c1
61 to 63	CN1Cc2ccc(N)cc2C1
178 to 180	O=C(O)c1ccc(Cl)c(S(=O)(=O)Nc2ccccc2N2CCOCC2)c1
119 to 121	CNC(=O)c1cc(OC)ccc1N
185 to 187	O=C(Cc1ccc2ccccc2c1)NO
141 to 143	CC(=O)N1CC(C)CNc2ccccc21 (stereo not given)
111 to 113	O=C(O)CCc1cccc([N+](=O)[O-])c1
132 to 134	COC(=O)c1cc2c(nc1N)CCC2
127 to 129	Nc1cccc(Cn2nc3ccccn3c2=O)c1

melting point [°C]	Compound
239 to 241	NC(=O)c1ccc(Cl)nn1
143 to 145	Nc1nonc1-c1ccc(Cl)c(Cl)c1
119 to 121	COC(=O)C1CNNC(=O)C1 (stereo not given)
250 to 252	O=C(O)c1ccc(N2CCCC2=O)cc1
141 to 143	O=C(O)CSc1ccc(O)cc1
221 to 223	O=c1[nH]c(-c2ncccn2)no1
190 to 192	O=C(O)C(CS(=O)(=O)c1ccccc1)N1CCOCC1 (stereo not given)
183 to 185	CCCCc1ccc(C(=O)Nc2sccc2C(=O)O)cc1
169 to 171	O=C(O)c1c(C(F)(F)F)noc1C(F)(F)F
186 to 188	CC(=O)NCc1ccc(C(=O)O)s1
86 to 90	Cc1cc(C(=O)CCl)c(C)n1-c1ccccc1F
48 to 50	O=S(=O)(Cl)c1ccc(Cl)nc1
75 to 77	O=C(CCl)NCCOc1ccc2c(c1)OCO2
70 to 72	CC(=O)c1ccc(O)c(CN2CCOCC2)c1
99 to 101	CC(C)CNS(=O)(=O)c1ccc(C#N)cc1
58 to 60	Cc1cnc(C#N)c(C)c1
125 to 127	CCc1ncc(N)cn1
81 to 83	O=c1n(CCCO)nc2ccccn12
105 to 107	COc1cccc2c1CCC2=O
102 to 104	O=C1CCC(Cc2cccc(O)c2)O1 (stereo not given)
79 to 81	Cc1cc([N+](=O)[O-])c(S(=O)(=O)Cl)cc1C
124 to 126	Nc1c(Oc2ccc(Cl)cc2)ccc2ncccc12
146 to 148	CC1C(=O)NCCN1C(=O)c1ccccc1 (stereo not given)
139 to 141	N#Cc1ccc(Nc2ccc(Cl)cc2)cc1
